Assay results as given in PMC10245910 (bioRxiv, 2023).

Legend:
[1] = target: T1, BesD (Streptantibioticus cattleyicolor, UniProt G8XHD5); test: UV-Vis MLCT band; format: binding; settings: Fe(II) added; co-substrate
T1 sequence (G8XHD5 1-242): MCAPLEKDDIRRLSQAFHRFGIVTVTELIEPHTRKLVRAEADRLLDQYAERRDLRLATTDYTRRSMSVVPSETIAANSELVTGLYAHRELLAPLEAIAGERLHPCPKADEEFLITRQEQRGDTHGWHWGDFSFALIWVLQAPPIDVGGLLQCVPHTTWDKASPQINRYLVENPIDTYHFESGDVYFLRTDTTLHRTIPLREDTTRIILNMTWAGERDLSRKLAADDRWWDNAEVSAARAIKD

[2] = target: T1, BesD; test: UV-Vis MLCT shift; format: biochemical; settings: BesD-Fe-2OG complex with lysine; anaerobic UV-Vis
[3] = target: T1, BesD; test: UV-Vis MLCT shift; format: biochemical; settings: BesD-Fe-2OG complex with lysine; anaerobic UV-Vis; remark: listed apart in the source
[4] = target: T1, BesD; test: biochemical

O=C(O)CCC(=O)C(=O)O [2-oxoglutarate]
UV-Vis MLCT band [1]: Upon the addition of Fe^II and 2OG to BesD, an MLCT band forms

[N-]=[N+]=[N-] [azide]
UV-Vis MLCT shift; UPLC-MS/MS of azidation product [2]: perturbations of the MLCT band with azide and bromide are minimal until the addition of lysine

Br [bromide]
UV-Vis MLCT shift; UPLC-MS/MS of bromination product [3]: perturbations of the MLCT band with azide and bromide are minimal until the addition of lysine

NCCCC[C@H](N)C(=O)O [lysine]
Kd [4]: 50 µM
